From patent US12636319B2, “Pharmaceutical composition for preventing or treating atopic disease containing Akkermansia muciniphila strain” (ENTEROBIOME INC., priority 2020, dated 2026) come the findings set out here.

In brackets after ≈: the same amount, converted by molar mass.

Test [1] deals with Akkermansia muciniphila EB-AMDK19. Briefly: MIC by CLSI broth microdilution, isolated strain. The note with it: EBAMDK19, test strain EB-AMDK19. The format is cell-based. (In general: Broth dilution looks for growth in wells or tubes with falling amounts of substance.)
Test [2] deals with Akkermansia muciniphila ATCC BAA-835. Briefly: MIC by CLSI broth microdilution, type strain. It counts as cell-based. The note with it: ATCCBAA835, test strain ATCC BAA-835.
In test [3] the test system is Bacteroides thetiotaomicron ATCC 29741. Briefly: MIC by CLSI broth microdilution, QC strain. It counts as cell-based.
For test [4], the system named is DNCB-induced atopic dermatitis in NC/Nga mice. The experiment in a line: Scratching frequency in DNCB-induced atopic dermatitis. It counts as in vivo, mouse. The note with it: scratching for 10 minutes, day before end; compared to the atopic dermatitis-induced group. The protocol:
(§1) The Akkermansia muciniphila ATCC BAA-835 strain and Akkermansia muciniphila EB-AMDK19 live bacteria used in this experiment were prepared at a concentration of 1×10^8 CFU/150 μl PBS (25% glycerol, 0.05% cysteine/PBS).
(§2) To observe atopic dermatitis lesions, 6-week-old NC/Nga mice (weighed about 21 to 25 g, SLC, Inc., Japan) were purchased from Daehan Biolink Co., Ltd. (Chungbuk, Korea). Animal tests were carried out in accordance with the Animal use and Care Protocol of the Institutional Animal Care and Use Committee (IACUC). The animals were acclimated for one week, and then raised for 9 weeks at a constant temperature of 22° C. and a relative humidity of 50 to 60% with a 12-hr light/12-hr dark cycle.
(§3) The backs of 6-week-old NC/Nga mice were shaved clean, and then left to stand for 24 hours so that fine wounds of the skin were healed. 1% 2,4-dinitrochlorobenzene (DNCB) solution (Sigma-Aldrich Korea) was applied to the back of each mouse twice a week for 3 weeks to induce an immune response, and then 0.5% DNCB solution was applied twice a week to induce contact dermatitis. […]
The day before the end of the experiment, the frequency of scratching the affected area due to itching was measured. For measurement of the frequency of scratching, each mouse was acclimated for 10 minutes, and then the frequency of scratching for 10 minutes was measured using a counter.

For test [5] the test system is unchanged. Briefly: Ear edema (ear thickness) in DNCB-induced atopic dermatitis. The following applies: at 6 weeks; normal group 0.55 mm, atopic dermatitis-induced group 1.50 mm. It counts as in vivo, mouse. The procedure:
as §1, §2, §3
After severe atopic dermatitis was induced, the mice after completion of the experiment were sacrificed by anesthetizing with CO2, and then the degree of edema of both ears was measured by the velocity transformation technique using a thickness gauge (Digimatic thickness gauge, 547-301, Mitutoyo, Japan).

For another test, the system named is Th2/Th1 cytokines. The experiment in a line: Ratio of Th2/Th1 serum cytokines. It counts as in vivo, mouse. The following applies: compared to the atopic dermatitis-induced group. The protocol:
as §1
To observe atopic dermatitis lesions, 6-week-old NC/Nga mice (weighed about 21 to 25 g, SLC, Inc., Japan) were purchased from Daehan Biolink Co., Ltd. (Chungbuk, Korea). Animal tests were carried out in accordance with the Animal use and Care Protocol of the Institutional Animal Care and Use Committee (IACUC). The animals were acclimated for one week, and then raised for 9 weeks at a constant temperature of 22° C. and a relative humidity of 50 to 60% with a 12-hr light/12-hr dark cycle. […]
At the end of the experiment, the mice were anesthetized with CO2, and blood was collected by cardiac puncture. […] The concentrations of IL-4, IL-12, IFN-γ and IL-6 cytokines were measured using an ELISA kit (Invitrogen, CA, USA), and the results of the measurement are shown in FIGS. 17(A), 17(B), 18(A), and 18(B).
From an immunological point of view, atopic dermatitis is a disease caused by an excessive imbalance between Th1 and Th2 immune responses. Thus, the cytokine concentrations measured as described above were expressed as the ratio of Th2/Th1 cytokines, and the results are shown in FIGS. 19(A), 19(B), 20(A), and 20(B).

Test [6] concerns DNCB-induced atopic dermatitis in NC/Nga mice. Briefly: Spleen weight in DNCB-induced atopic dermatitis. The format is in vivo, mouse. The note with it: end of experiment; compared to the atopic dermatitis-induced group. The protocol: as §1, §2
(§4) The backs of 6-week-old NC/Nga mice were shaved clean, and then left to stand for 24 hours so that fine wounds of the skin were healed. […]
Thus, the weight of the spleen was measured to observe the effect of the composition for preventing atopic dermatitis on the immune organs of NC/Nga mice with atopic dermatitis induced by DNCB. […] The collected spleen tissues were washed with physiological saline, and then the sizes thereof were visually observed and the weights thereof were measured using a microbalance.

Test [7] shares this test system. Briefly: Dermatitis score (modified SCORAD) in DNCB-induced atopic dermatitis. It counts as in vivo, mouse. The note with it: week 6, compared to the atopic dermatitis-induced group; oral daily. The protocol: as §1, §2, §4
After atopic dermatitis was induced by DNCB, treatment was performed by administering a preparation containing each of dexamethasone (DEX), the ATCC BAA-835 strain and the EB-AMDK19 strain for 6 weeks. […] Skin dryness, edema, erythema/hemorrhage, and erosion/excoriation were scored as follows: no symptoms=0, weak symptoms=1, moderate symptoms=2, and severe symptoms=3.

For the next test, the system named is IgE. Briefly: Serum IgE concentration by ELISA. The format is in vivo, mouse. The procedure:
as §1, §2, §3
At the end of the experiment, each of the mice was anesthetized with CO2 and blood was collected by cardiac puncture. The collected blood was centrifuged at 10,000 rpm for 5 minutes to separate the serum, and the serum IgE concentration was measured. […]
Background: An ELISA detects its analyte on a solid surface through an enzyme-linked reagent.

In the case of `O=C(N[C@H](CO)[C@H](O)c1ccc([N+](=O)[O-])cc1)C(Cl)Cl` [CHL, chloramphenicol], the MIC in [1] was 4 µg/mL (≈ 12.4 µM); in test [2], 4 µg/mL (≈ 12.4 µM); in test [3] (Bacteroides, ATCC29741) it was 8 µg/mL (≈ 24.8 µM).

In the case of `CCC[C@@H]1C[C@@H](C(=O)N[C@@H]([C@H]2O[C@H](SC)[C@H](O)[C@@H](O)[C@H]2O)[C@H](C)Cl)N(C)C1` [CLI, clindamycin], the minimal inhibitory concentration (MIC) is 4 µg/mL (≈ 9.41 µM) in test [1] and not above 0.125 µg/mL in test [2].

As for `CO/N=C(\C(=O)N[C@@H]1C(=O)N2C(C(=O)O)=CCS[C@H]12)c1csc(N)n1` [CTZ, ceftizoxime], the MIC in test [1] was 1 µg/mL (≈ 2.61 µM); in test [2], 2 µg/mL (≈ 5.22 µM); in test [3] (Bacteroides, ATCC29741), 16 µg/mL (≈ 41.7 µM).

Take `C[C@@H]1C[C@H]2[C@@H]3CCC4=CC(=O)C=C[C@]4(C)[C@@]3(F)[C@@H](O)C[C@]2(C)[C@@]1(O)C(=O)CO` [DEX, dexamethasone]: in test [4], the “decrease in scratching frequency” value is recorded as “about 59.4%”. Further, in [5], the ear edema was determined as 1.00 mm. Moreover, in the test with Th2/Th1 cytokines, the “decrease of IL-6/IFN-γ ratio” value turned out to be 12.7% and the “decrease of IL-6/IL-12 ratio” value came out at 34.5%. Further, the “decrease in spleen weight” value in test [6] came out at 23.3%. Moreover, in [7], the “decrease in dermatitis score” value is recorded as 38.4%. Besides, the “serum IgE decrease” value with IgE (compared to the atopic dermatitis-induced group) is recorded as 40.70%. Moreover, the “serum IgE concentration” value in the test with IgE (end of experiment, ELISA) turned out to be 11891.34 ng/mL.

For the molecule `C[C@@H](O)[C@H]1C(=O)N2C(C(=O)O)=C(S[C@@H]3CN[C@H](C(=O)N(C)C)C3)[C@H](C)[C@H]12` [MEM, meropenem], the MIC worked out at 0.5 µg/mL (≈ 1.3 µM) in [1]; 1 µg/mL (≈ 2.61 µM) in test [2]; 0.5 µg/mL (≈ 1.3 µM) in test [3] (Bacteroides, ATCC29741).

As for `Cc1ncc([N+](=O)[O-])n1CCO` [MTZ, metronidazole], the minimum inhibitory concentration (MIC) was 0.5 µg/mL (≈ 2.92 µM) in test [1]; not above 0.25 µg/mL in test [2]; 2 µg/mL (≈ 11.7 µM) in test [3] (Bacteroides, ATCC29741).

Turning to `COc1c(N2C[C@@H]3CCCN[C@@H]3C2)c(F)cc2c(=O)c(C(=O)O)cn(C3CC3)c12` [MXF, moxifloxacin], the minimal inhibitory concentration (MIC) in test [1] is more than 32 µg/mL; in [2], more than 32 µg/mL; in [3] (Bacteroides, ATCC29741), 8 µg/mL (≈ 19.9 µM).

For the molecule Piperacillin-tazobactam [PTZ], the minimum inhibitory concentration (MIC) in [3] (QC strain ATCC 29741, broth microdilution, CLSI) is reported as 8/4.

The MIC is the least concentration at which growth counts as inhibited. Higher therefore signals a need for much substance.
